Values quoted from earlier work, collected in US4756118A, “Method and apparatus for the destruction of imported fire ants of the genus Solenopsis” (priority 1986, dated 1988).

Tests used:
[1] = tested on: Imported Fire Ant; settings: poison bait
[2] = relative to pyrethrum

Structure (SMILES)	effectiveness in Imported Fire Ant control [1]	Acute Oral LD50	times more effective than pyrethrum [2] [times]
CC1(C)CNC(=NN=C(C=Cc2ccc(C(F)(F)F)cc2)C=Cc2ccc(C(F)(F)F)cc2)NC1 [Amdro]	very limited in its effectiveness		
ClC1(Cl)C2(Cl)C3(Cl)C4(Cl)C(Cl)(Cl)C5(Cl)C3(Cl)C1(Cl)C5(Cl)C24Cl (centres unmarked) [Mirex, dodecachloroocta-hydro-1,3,4-metheno-2H-cyclobuta(cd)pentalene]	most effective chemical control agent	306 mg/kg	
CC(C)=CC1C(C(=O)OCc2coc(Cc3ccccc3)c2)C1(C)C (centres unmarked) [Resmethrin, [5-(phenylmethyl)-3-furanyl]methyl 2,2-dimethyl-3-(2-methyl-1-propenyl)cyclopropanecarboxylate]		4,420 mg./kg.	~20
